Here are results for one compound from patent US9872861B2, “Methods of treatment using selective Bcl-2 inhibitors” (AbbVie Inc., priority 2010, dated 2018).

Each structure is given as a SMILES string. Read-outs that look alike come from different tables or passages of the source. Some results are limits rather than exact numbers.

A word on the EC50: it is the concentration at which the effect is half-maximal.

In one data set the target is Mcl-1 (Homo sapiens, UniProt Q07820). Kind of data set: TR FRET competitive binding affinity, Mcl-1. As to conditions: read-out: Target Affinity TR FRET, Mcl-1. Here is the method:
A comparison of the binding affinity for each of the compounds was performed to determine target affinity, as measured by Time-Resolved Fluorescence Resonance Energy Transfer (TR FRET).
(In general: Time-resolved FRET reads energy transfer from a long-lived donor to a nearby acceptor.)

A further data set relates to FL5.12-Bcl-2 cells. The experiment in a line: Cellular efficacy in FL5.12 cells dependent on Bcl-2. The note with it: Mus musculus, 3% FBS. Type of data set: cell-based, murine.
The next data set concerns FL5.12-Bcl-XL cells. The experiment in a line: Cellular efficacy in FL5.12 cells dependent on Bcl-XL. It is filed as cell-based, murine. As to conditions: Mus musculus, 3% FBS.
A further data set deals with RS4;11 cells. Kind of data set: Cellular efficacy in Bcl-2 dependent tumor cell line RS4;11. It is filed as cell-based, human. The note with it: 10% HS.
For data set [1], the system named is cells dependent on Bcl-2 for survival. Kind of data set: Mechanism of cell killing (apoptosis hallmarks). It is filed as cell-based. The source says: As also shown in Table 1B, additional compounds show selective binding affinity for Bcl-2 over Bcl-XL and other Bcl-2 family proteins.
Data set [2] deals with peripheral blood immune cells. Kind of data set: Peripheral blood lymphocytes in C57BL/6 mice, Cell Dyn hematology analyzer. It is filed as in vivo. The note with it: for inhibition in vivo at 100 mg/kg: Mus musculus, Lymphocyte. As for the experimental part: The effect of the Bcl-2 selective/Bcl-XL sparing compounds on peripheral blood immune cells was also evaluated in C57BL/6 mice. Mice were treated four days with individual compounds (100 mg/kg, orally every day) and cell numbers were measured with a Cell Dyn hematology analyzer.

For another data set, the system named is IgG anti-ds DNA. The experiment in a line: Anti-ds DNA titer by ELISA in spontaneous lupus model. Type of data set: in vivo, (NZB×NZW)F1 mice. As for the experimental part:
It is believed that Compound 1 triggers apoptosis of lymphocytes that are responsible for production of antibodies, which play a role in the progression of systemic lupus erythematosus, as well as Sjogren's Syndrome. […] Specifically, anti-dsDNA antibody levels were measured by ELISA and assigned arbitrary activity unit concentrations per ml relative to a standard plasma pool derived from proteinuric 9-10 month old NZB/W mice. ELISA assay was performed by coating plates with poly-L-lysine followed by calf-thymus DNA. Diluted mouse plasma was incubated and developed using anti-IgG HRP conjugated antibodies and the mean OD from duplicate wells was compared to a titrated standard curve of pooled high tittered anti-dsDNA plasma. The undiluted standard plasma pool was arbitrarily assigned a value of 1000 anti-dsDNA Units/ml. A linear regression analysis was then used to calculate the relative units of a given sample multiplied by the given dilution factor.
(An ELISA detects its analyte on a solid surface through an enzyme-linked reagent.)

The test system of the next data set is renal tissue. The experiment in a line: Renal histology and immunohistochemistry in spontaneous lupus nephritis mice. Type of data set: in vivo, (NZB×NZW)F1 mice. As for the experimental part:
An experiment was performed to determine the extent to which the selective Bcl-2 inhibitors infiltrated the kidney tissue. Specifically, a histologic assessment of the penetration of selective Bcl-2 inhibitors into the renal tissue of spontaneous murine model for lupus was performed. The spontaneous murine model of lupus, as described in Example 3, was used for the histological assessment described herein. The kidneys were bisected and then fixed in 10% neutral-buffered formalin or cryopreserved (snap frozen). For H&E staining, 5-μm sections from paraffin-embedded tissues were semiquantitatively scored (0-4) by an experienced pathologist for glomerulonephritis and tubular changes (dilation and casts). For IgG immunohistochemistry, 5-μm cryosections were fixed with acetone, washed, and blocked with 10% normal goat serum. Sections were then incubated with FITC-conjugated goat anti-mouse IgG (Cappel/ICN Pharmaceuticals) or negative control HRP-goat IgG (Jackson ImmunoResearch Laboratories) and coverslipped using Vectashield with 4′,6-diamidino-2-phenylindole (Vector Laboratories). Sections were evaluated for severity of IgG deposition using a semiquantitative scoring system (from 0-4). To identify for B and T cells, immunohistochemistry for CD45R (B cells) and CD3 (T cells) was completed on paraffin sections. FIGS. 6 and 7 illustrate the results of the histological assessment, and FIG. 8 illustrates the effect of selective Bcl-2 inhibitor treatment on IgG deposition, B cells, and T cells in the kidneys.

Data set [3] in a line: Exposure in IFNα-induced lupus model. It is filed as in vivo. As for the experimental part: Treatment was initiated in a late-prophylactic mode (7 days after IFNα adenovirus). […] All treatment groups were administered treatment 7 days after adenovirus injection. Following adenovirus injection, mice were monitored weekly for proteinuria (PU) using Albustix test strips (VWR). Severe PU was defined by consecutive weekly measurements of PU≧300 mg/dl. When mice became moribund, they were sacrificed according to Institutional Animal Care and Use Committee protocols.

Chain of Mcl-1 (Q07820 whole entry): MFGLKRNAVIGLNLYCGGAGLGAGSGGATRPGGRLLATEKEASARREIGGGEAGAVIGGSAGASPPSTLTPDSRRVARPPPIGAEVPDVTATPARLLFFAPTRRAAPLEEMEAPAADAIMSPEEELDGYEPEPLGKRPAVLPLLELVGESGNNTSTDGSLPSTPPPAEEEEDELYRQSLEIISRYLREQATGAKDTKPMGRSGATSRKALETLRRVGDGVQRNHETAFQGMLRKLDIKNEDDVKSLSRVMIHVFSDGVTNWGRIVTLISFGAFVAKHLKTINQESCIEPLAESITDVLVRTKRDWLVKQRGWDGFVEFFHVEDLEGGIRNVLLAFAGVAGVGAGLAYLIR

Turning to `CC1(C)CCC(CN2CCN(c3ccc(C(=O)NS(=O)(=O)c4ccc(NCC5CCOCC5)c([N+](=O)[O-])c4)c(Oc4cnc5[nH]ccc5c4)c3)CC2)=C(c2ccc(Cl)cc2)C1` [Compound 1, 4-(4-{[2-(4-chlorophenyl)-4,4-dimethylcyclohex-1-en-1-yl]methyl}piperazin-1-yl)-N-({3-nitro-4-[(tetrahydro-2H-pyran-4-ylmethyl)amino]phenyl}sulfonyl)-2-(1H-pyrrolo[2,3-b]pyridin-5-yloxy)benzamide], at Mcl-1, the Ki was over 440 nM. Further, the EC50 in the data set on FL5.12-Bcl-2 cells turned out to be 4 nM; with FL5.12-Bcl-XL cells, 261 nM; in the data set with RS4;11 cells, 12 nM. Also, in data set [1], the “hallmarks of apoptotic cell death” value is “rapid cytochrome c release, caspase-3 and -7 activation, and membrane phosphatidylserine (PS) externalization”. Further, the “caspase dependence of cell killing” value in data set [1] (ablated by pan caspase inhibitor z-VAD-fmk) is “caspase-dependent”. Further, in [2] (1 oral dose of 100 mg/kg), the “Day 1 Lymphocytes” value is on record as 1.38 ×10^6. Moreover, the “Day 4 lymphocytes” value in [2] (4 oral doses of 100 mg/kg) is on record as 1.32 ×10^6. Also, the inhibition in vivo at 100 mg/kg in [2] (24 h, 1 oral dose of 100 mg/kg, read-out: Day 1 % Reduction vs. Vehicle) came to 83%; in data set [2] (96 h, 4 oral doses of 100 mg/kg, read-out: Day 4 % Reduction vs. Vehicle) it was 83%. Moreover, in the data set on IgG anti-ds DNA (spontaneous model, 1, 3 and 10 mg/kg), the “anti-ds DNA titer” value is on record as “no appreciable reduction”. Further, the “anti-ds DNA titer vs vehicle control” value in the data set with IgG anti-ds DNA (spontaneous model, week 40, 30 and 100 mg/kg) is reported as “significantly inhibited the increase in anti-ds DNA titer”. In the data set on renal tissue (30 mg/kg), the “IgG deposition in renal tissue” value was “decrease in IgG deposition”. Besides, in the data set on renal tissue (30 mg/kg and 100 mg/kg), the “renal histology scores (glomerulonephritis, tubular changes, perivascular infiltrates)” value was “statistically significant improvement”. In addition, the “B cell and T cell numbers in renal tissue” value in the data set on renal tissue (100 mg/kg) is “decreases in B cell and T cell numbers”. For the same compound, the renal tissue infiltrates result in the data set on renal tissue (30 or 100 mg/kg) was “small, discrete and less frequent”. Moreover, the target efficacious exposure result in data set [3] is listed as “approximately 40 μg·h/mL”.
